Reference: paper PMC10004634 (PLOS ONE, 2023)
Read-outs that look alike come from different tables or passages of the source.

How the values were obtained:
Test in all cases: biochemical
Set-up in all cases: KINOMEscan scanMAX competition binding, DNA-tagged kinases, qPCR read-out, percent control at 300 nM
ULK1 = molecular target: T1, ULK1 (Homo sapiens, UniProt O75385)
T1 sequence (O75385 1-1050): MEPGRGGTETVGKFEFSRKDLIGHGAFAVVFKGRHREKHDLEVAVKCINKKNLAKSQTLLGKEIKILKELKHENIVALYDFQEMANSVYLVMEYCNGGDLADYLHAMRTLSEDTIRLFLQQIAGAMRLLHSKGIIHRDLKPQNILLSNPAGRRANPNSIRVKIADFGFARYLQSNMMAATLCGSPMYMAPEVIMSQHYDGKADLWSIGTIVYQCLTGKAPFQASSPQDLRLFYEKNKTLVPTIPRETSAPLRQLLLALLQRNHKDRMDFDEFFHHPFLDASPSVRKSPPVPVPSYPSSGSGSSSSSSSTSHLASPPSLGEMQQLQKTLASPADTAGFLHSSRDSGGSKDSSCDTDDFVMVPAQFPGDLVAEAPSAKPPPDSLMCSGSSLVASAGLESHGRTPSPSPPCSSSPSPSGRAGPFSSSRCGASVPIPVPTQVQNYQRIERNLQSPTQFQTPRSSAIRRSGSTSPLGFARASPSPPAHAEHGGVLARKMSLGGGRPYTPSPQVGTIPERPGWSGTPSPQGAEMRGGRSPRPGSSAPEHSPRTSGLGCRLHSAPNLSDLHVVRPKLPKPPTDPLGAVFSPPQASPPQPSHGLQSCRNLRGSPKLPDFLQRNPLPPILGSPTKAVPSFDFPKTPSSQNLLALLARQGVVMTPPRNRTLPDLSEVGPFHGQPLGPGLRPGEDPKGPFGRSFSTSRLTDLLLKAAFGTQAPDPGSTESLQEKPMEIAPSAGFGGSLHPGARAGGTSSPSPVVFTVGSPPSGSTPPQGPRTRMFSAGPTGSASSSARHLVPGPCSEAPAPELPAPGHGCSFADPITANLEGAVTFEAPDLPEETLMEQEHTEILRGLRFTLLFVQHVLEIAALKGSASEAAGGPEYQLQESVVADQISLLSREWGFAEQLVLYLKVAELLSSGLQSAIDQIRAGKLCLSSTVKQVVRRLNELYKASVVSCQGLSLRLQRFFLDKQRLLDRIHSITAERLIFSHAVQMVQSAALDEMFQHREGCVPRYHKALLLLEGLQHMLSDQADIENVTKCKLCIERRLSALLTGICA

ZAK = molecular target: T2, ZAK (Homo sapiens, UniProt Q9NYL2)
T2 construct: gene MAP3K20
T2 sequence (Q9NYL2 whole entry): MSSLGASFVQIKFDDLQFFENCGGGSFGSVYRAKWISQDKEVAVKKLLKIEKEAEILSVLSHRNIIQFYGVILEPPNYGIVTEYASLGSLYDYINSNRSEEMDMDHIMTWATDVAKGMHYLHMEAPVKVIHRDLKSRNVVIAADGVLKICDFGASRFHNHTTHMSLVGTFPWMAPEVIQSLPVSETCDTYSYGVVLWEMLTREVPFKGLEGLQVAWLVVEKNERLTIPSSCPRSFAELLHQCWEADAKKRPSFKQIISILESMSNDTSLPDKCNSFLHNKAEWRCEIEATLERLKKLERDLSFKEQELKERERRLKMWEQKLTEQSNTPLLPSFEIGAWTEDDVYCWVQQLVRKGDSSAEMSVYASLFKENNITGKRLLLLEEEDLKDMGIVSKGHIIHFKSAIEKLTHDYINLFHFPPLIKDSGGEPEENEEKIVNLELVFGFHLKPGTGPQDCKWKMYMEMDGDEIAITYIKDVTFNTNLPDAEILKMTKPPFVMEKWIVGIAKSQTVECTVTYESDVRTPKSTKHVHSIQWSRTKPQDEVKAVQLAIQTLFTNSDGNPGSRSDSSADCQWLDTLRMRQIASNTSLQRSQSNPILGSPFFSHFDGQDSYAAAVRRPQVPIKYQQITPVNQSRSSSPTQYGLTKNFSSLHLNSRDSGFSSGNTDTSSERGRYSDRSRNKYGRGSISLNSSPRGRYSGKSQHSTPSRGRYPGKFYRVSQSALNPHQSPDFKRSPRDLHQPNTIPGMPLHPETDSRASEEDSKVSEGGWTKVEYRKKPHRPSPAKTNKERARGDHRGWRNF

FER = FER (Homo sapiens, UniProt P16591)
Chain of FER (P16591 whole entry): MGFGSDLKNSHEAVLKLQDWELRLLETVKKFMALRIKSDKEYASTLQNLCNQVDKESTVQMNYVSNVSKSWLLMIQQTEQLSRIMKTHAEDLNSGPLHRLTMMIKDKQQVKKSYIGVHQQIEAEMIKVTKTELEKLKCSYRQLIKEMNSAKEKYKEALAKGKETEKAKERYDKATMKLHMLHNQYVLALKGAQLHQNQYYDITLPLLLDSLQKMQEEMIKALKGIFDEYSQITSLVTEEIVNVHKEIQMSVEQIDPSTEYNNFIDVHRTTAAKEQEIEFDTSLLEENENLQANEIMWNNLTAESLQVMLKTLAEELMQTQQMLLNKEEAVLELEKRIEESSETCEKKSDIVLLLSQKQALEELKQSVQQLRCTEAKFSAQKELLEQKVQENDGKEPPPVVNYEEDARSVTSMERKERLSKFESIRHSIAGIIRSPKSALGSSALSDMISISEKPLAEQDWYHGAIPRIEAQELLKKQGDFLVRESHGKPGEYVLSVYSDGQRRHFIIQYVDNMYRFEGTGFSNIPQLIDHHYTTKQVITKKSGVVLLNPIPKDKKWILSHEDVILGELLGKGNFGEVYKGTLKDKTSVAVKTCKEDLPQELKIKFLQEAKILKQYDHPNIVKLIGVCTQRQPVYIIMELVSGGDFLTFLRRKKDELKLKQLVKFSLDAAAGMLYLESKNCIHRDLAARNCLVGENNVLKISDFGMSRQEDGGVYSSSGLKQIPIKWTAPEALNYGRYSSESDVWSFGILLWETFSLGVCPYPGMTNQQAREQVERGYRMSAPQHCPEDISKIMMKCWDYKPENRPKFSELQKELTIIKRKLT

PLK3 = PLK3 (Homo sapiens, UniProt Q9H4B4)
Chain of PLK3 (Q9H4B4 whole entry): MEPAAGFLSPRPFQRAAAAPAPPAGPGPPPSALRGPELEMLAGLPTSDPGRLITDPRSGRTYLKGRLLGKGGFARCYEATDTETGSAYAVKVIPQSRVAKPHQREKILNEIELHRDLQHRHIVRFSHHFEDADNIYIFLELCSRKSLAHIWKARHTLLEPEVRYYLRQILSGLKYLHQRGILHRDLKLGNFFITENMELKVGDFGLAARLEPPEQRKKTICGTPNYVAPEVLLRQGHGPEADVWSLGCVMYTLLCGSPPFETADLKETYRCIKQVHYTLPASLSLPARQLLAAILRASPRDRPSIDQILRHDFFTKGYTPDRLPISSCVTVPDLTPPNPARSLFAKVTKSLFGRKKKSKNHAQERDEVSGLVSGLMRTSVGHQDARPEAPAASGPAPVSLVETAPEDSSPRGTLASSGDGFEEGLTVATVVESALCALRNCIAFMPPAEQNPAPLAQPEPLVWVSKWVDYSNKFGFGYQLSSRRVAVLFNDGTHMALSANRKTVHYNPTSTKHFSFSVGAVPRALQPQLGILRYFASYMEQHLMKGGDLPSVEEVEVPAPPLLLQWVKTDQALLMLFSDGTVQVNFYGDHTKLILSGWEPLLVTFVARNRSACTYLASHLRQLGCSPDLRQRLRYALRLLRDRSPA

AURKC = molecular target: T3, AURKC (Homo sapiens, UniProt Q9UQB9)
T3 sequence (Q9UQB9 1-309): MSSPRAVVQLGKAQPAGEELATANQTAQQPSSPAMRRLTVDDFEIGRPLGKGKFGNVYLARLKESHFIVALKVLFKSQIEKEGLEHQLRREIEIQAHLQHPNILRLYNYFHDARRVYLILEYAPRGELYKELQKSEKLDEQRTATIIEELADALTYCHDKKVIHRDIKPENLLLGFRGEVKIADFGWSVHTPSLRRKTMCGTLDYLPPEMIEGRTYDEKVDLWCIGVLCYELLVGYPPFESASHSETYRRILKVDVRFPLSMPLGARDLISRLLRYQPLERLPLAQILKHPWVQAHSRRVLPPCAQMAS

p38-alpha = molecular target: T4, p38-alpha (Homo sapiens, UniProt Q16539)
T4 construct: gene MAPK14
T4 sequence (Q16539 whole entry): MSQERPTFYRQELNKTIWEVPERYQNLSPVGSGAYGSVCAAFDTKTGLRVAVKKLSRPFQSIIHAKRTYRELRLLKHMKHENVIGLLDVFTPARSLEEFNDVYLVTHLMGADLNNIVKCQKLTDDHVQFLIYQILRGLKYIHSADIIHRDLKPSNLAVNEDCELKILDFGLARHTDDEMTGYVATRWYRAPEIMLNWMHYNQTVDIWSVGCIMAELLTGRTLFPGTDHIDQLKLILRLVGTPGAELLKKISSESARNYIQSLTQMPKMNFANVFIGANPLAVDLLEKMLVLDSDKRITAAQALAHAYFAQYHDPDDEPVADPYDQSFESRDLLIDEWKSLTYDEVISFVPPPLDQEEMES

STK35 = STK35 (Homo sapiens, UniProt Q8TDR2)
Chain of STK35 (Q8TDR2 whole entry): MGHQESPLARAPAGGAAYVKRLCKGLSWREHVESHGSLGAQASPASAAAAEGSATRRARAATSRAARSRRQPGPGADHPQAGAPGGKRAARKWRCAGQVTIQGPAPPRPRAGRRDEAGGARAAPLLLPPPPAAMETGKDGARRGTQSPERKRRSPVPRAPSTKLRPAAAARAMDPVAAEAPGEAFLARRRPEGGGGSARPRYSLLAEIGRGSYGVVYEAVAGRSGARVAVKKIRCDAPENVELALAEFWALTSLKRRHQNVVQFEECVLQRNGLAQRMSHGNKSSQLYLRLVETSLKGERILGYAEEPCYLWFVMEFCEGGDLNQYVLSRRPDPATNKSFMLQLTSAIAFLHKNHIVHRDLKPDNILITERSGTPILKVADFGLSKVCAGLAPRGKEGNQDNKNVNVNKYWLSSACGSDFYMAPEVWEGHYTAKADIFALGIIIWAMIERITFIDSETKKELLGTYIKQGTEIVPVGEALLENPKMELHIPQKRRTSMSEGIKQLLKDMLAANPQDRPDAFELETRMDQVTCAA

MARK4 = molecular target: T5, MARK4 (Homo sapiens, UniProt Q96L34)
T5 sequence (Q96L34 1-752): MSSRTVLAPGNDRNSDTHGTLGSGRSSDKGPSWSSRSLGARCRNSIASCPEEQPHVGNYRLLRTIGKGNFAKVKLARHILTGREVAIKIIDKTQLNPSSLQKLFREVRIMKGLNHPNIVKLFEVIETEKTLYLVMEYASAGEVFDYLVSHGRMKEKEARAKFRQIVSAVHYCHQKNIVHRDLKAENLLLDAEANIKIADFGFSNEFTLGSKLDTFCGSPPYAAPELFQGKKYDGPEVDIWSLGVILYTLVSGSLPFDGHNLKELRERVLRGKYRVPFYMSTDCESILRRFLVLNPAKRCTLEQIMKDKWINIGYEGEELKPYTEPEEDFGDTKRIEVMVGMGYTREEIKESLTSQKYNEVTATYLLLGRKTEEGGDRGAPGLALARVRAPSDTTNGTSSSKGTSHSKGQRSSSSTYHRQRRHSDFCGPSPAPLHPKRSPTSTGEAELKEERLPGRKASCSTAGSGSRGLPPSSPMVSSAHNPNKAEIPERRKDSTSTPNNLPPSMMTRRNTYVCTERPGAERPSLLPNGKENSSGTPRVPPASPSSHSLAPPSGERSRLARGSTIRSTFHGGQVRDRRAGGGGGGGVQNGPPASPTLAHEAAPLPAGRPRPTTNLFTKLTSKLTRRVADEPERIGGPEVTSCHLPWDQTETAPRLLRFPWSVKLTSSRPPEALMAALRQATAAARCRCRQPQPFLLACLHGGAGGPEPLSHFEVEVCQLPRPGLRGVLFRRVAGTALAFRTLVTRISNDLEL

[1] = read-out: Percent control / Acalabrutinib
[2] = read-out: Percent control / Ibrutinib
[3] = read-out: Percent control / Tirabrutinib
[4] = read-out: Percent control / Zanubrutinib

CC#CC(=O)N1CCC[C@H]1c1nc(-c2ccc(C(=O)Nc3ccccn3)cc2)c2c(N)nccn12 [Acalabrutinib]
remaining binding at 0.3 µM (ULK1; [1]): 95% | remaining binding at 0.3 µM (ZAK; [1]): 83% | remaining binding at 0.3 µM (FER; [1]): 84% | remaining binding at 0.3 µM (PLK3; [1]): 91% | remaining binding at 0.3 µM (AURKC; [1]): 64% | remaining binding at 0.3 µM (p38-alpha; [1]): 85% | remaining binding at 0.3 µM (STK35; [1]): 96%

C=CC(=O)N1CCC[C@@H](n2nc(-c3ccc(Oc4ccccc4)cc3)c3c(N)ncnc32)C1 [Ibrutinib]
remaining binding at 0.3 µM (ULK1; [2]): 85% | remaining binding at 0.3 µM (ZAK; [2]): 70% | remaining binding at 0.3 µM (FER; [2]): 94% | remaining binding at 0.3 µM (PLK3; [2]): 94% | remaining binding at 0.3 µM (MARK4; [2]): 96% | remaining binding at 0.3 µM (AURKC; [2]): 54% | remaining binding at 0.3 µM (p38-alpha; [2]): 98% | remaining binding at 0.3 µM (STK35; [2]): 86%

CC#CC(=O)N1CC[C@@H](n2c(=O)n(-c3ccc(Oc4ccccc4)cc3)c3c(N)ncnc32)C1 [Tirabrutinib]
remaining binding at 0.3 µM (ULK1; [3]): 74% | remaining binding at 0.3 µM (FER; [3]): 93% | remaining binding at 0.3 µM (MARK4; [3]): 94% | remaining binding at 0.3 µM (AURKC; [3]): 65% | remaining binding at 0.3 µM (p38-alpha; [3]): 92%

C=CC(=O)N1CCC([C@@H]2CCNc3c(C(N)=O)c(-c4ccc(Oc5ccccc5)cc4)nn32)CC1 [Zanubrutinib]
remaining binding at 0.3 µM (ULK1; [4]): 100% | remaining binding at 0.3 µM (ZAK; [4]): 62% | remaining binding at 0.3 µM (FER; [4]): 100% | remaining binding at 0.3 µM (PLK3; [4]): 94% | remaining binding at 0.3 µM (MARK4; [4]): 83% | remaining binding at 0.3 µM (AURKC; [4]): 97% | remaining binding at 0.3 µM (p38-alpha; [4]): 97% | remaining binding at 0.3 µM (STK35; [4]): 92%
